Assay results from PubChem BioAssay (NCI).
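Five compound concentrations were applied to cells in 96-well plates for 48 hours; endpoints were derived by simple linear interpolation of the resulting dose-response curve. TGI marks complete inhibition of growth.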

Tests used:
Experiment in all cases: NCI-60 cell line screen, 48 h
[1] = system: IGROV1 ovarian
[2] = system: CAKI-1 renal
[3] = system: MCF7 breast
[4] = system: MDA-MB-435
[5] = system: UO-31 renal
[6] = system: A549 NSCLC
[7] = system: SNB-19 CNS
[8] = system: SK-MEL-2 melanoma

Structure (SMILES): C=CCN(c1cc(OC)c(NC(C)=O)cc1[N+](=O)[O-])S(C)(=O)=O
- TGI [1]: > 100 µM
- TGI [2]: > 100 µM
- TGI [3]: > 100 µM
- TGI [4]: > 100 µM
- TGI [5]: > 100 µM
- TGI [6]: > 100 µM
- TGI [7]: > 100 µM
- TGI [8]: > 100 µM

Structure (SMILES): CCOCCOCCOCc1nc(C#N)c(N)o1
- TGI [1]: > 100 µM
- TGI [2]: > 100 µM
- TGI [3]: > 100 µM
- TGI [4]: > 100 µM
- TGI [5]: > 100 µM
- TGI [6]: > 100 µM
- TGI [8]: > 100 µM

Structure (SMILES): Cc1ccc(CC(Cc2ccccc2C)C(=O)O)c(C(=O)O)c1 (stereo not given)
- TGI [1]: > 100 µM
- TGI [2]: > 100 µM
- TGI [3]: > 100 µM
- TGI [4]: > 100 µM
- TGI [5]: > 100 µM
- TGI [6]: > 100 µM
- TGI [7]: > 100 µM
- TGI [8]: > 100 µM

Structure (SMILES): Cc1[nH]c(=O)nc2nc3cc(Cl)cc(Cl)c3c(NC(C)(CO)CO)c12
- TGI [1]: > 100 µM
- TGI [2]: > 100 µM
- TGI [3]: > 100 µM
- TGI [4]: > 100 µM
- TGI [5]: > 100 µM
- TGI [6]: > 100 µM
- TGI [7]: > 100 µM
- TGI [8]: > 100 µM

Structure (SMILES): COc1ccc(C(CC2(c3ccc(OC)cc3)SCCCS2)NC(C)=O)cc1 (stereo not given)
- TGI [1]: > 100 µM
- TGI [2]: > 100 µM
- TGI [3]: > 100 µM
- TGI [4]: > 100 µM
- TGI [5]: > 100 µM
- TGI [6]: > 100 µM
- TGI [7]: > 100 µM
- TGI [8]: > 100 µM

Structure (SMILES): Cc1ccc(CC2(C(=O)O)Cc3ccc(C)cc3C2)cc1 (stereo not given)
- TGI [1]: > 100 µM
- TGI [2]: > 100 µM
- TGI [3]: > 100 µM
- TGI [4]: > 100 µM
- TGI [5]: > 100 µM
- TGI [6]: > 100 µM
- TGI [7]: > 100 µM
- TGI [8]: > 100 µM

Structure (SMILES): C[C@H](C1CC(C)(O)C(C)(O)C(O)O1)[C@H]1CC[C@H]2[C@@H]3[C@@H]4O[C@@H]4[C@@]4(O)CC=CC(=O)[C@]4(C)[C@H]3CC[C@]12C (stereo not given in full)
- TGI [1]: > 50 µM
- TGI [2]: > 50 µM
- TGI [3]: > 50 µM
- TGI [4]: > 50 µM
- TGI [5]: > 50 µM
- TGI [6]: > 50 µM
- TGI [7]: > 50 µM
- TGI [8]: > 50 µM

Structure (SMILES): Cc1ccc(C)n1-c1ccccc1C1C=Cn2c(=O)nnc3c(OC(C)C)c(OC(C)C)c(O)c1c32 (stereo not given)
- TGI [1]: > 100 µM
- TGI [2]: > 100 µM
- TGI [3]: > 100 µM
- TGI [4]: 58.5 µM
- TGI [5]: > 100 µM
- TGI [6]: > 100 µM
- TGI [7]: > 100 µM
- TGI [8]: > 100 µM

Structure (SMILES): CC[C@]12C=CCN3CC[C@@]4(c5cc(N=O)c(OC)cc5N(C)[C@H]4[C@@](O)(C(=O)OC)[C@@H]1OC(C)=O)[C@@H]32
- TGI [1]: > 100 µM
- TGI [2]: > 100 µM
- TGI [3]: > 100 µM
- TGI [4]: 74.8 µM
- TGI [5]: > 100 µM
- TGI [6]: > 100 µM
- TGI [7]: > 100 µM
- TGI [8]: 41.7 µM

Structure (SMILES): CC(C)CC(NC(=O)C(C)(CI)Cc1ccccc1)C(=O)Nc1ccccc1 (stereo not given)
- TGI [1]: > 100 µM
- TGI [2]: > 100 µM
- TGI [3]: > 100 µM
- TGI [4]: > 100 µM
- TGI [5]: > 100 µM
- TGI [6]: > 100 µM
- TGI [7]: > 100 µM
- TGI [8]: > 100 µM

Structure (SMILES): O=C1NC2c3c(I)sc(I)c3C(=O)C2O1 (stereo not given)
- TGI [1]: 8.01 µM
- TGI [2]: 9.36 µM
- TGI [3]: 13.7 µM
- TGI [4]: 17.5 µM
- TGI [5]: 12.2 µM
- TGI [6]: 28.3 µM
- TGI [7]: 17.8 µM
- TGI [8]: 15.3 µM

Structure (SMILES): CCOC(=O)c1cc(C2CCN(c3ccccc3)C2=O)c(/C(O)=C/C(C)=O)[nH]1 (stereo not given)
- TGI [1]: > 100 µM
- TGI [2]: > 100 µM
- TGI [3]: > 100 µM
- TGI [4]: > 100 µM
- TGI [5]: > 100 µM
- TGI [6]: > 100 µM
- TGI [7]: > 100 µM
- TGI [8]: > 100 µM

Structure (SMILES): CC(/C=C/C(=O)NO)=C\C(C)C(=O)c1ccc(N(C)C)cc1 (stereo not given)
- TGI [1]: 0.28 µM
- TGI [2]: 0.0863 µM
- TGI [3]: > 100 µM
- TGI [4]: 0.0467 µM
- TGI [5]: 0.262 µM
- TGI [6]: 0.0814 µM
- TGI [7]: 0.654 µM
- TGI [8]: 0.778 µM

Structure (SMILES): Cc1c2ccccc2c(C2C3C(=O)N(c4ccc(Br)cc4)C(=O)C3ON2C(C(N)=O)c2ccccc2)c2ccccc12 (stereo not given)
- TGI [1]: 18.2 µM
- TGI [2]: 21.3 µM
- TGI [3]: 24.4 µM
- TGI [4]: 12.9 µM
- TGI [5]: 34.6 µM
- TGI [6]: 14.1 µM
- TGI [7]: 22.6 µM
- TGI [8]: 30.3 µM

Structure (SMILES): Cc1ccc(O)c(Cc2nc3ccccc3nc2-c2cccc(Cl)c2)c1
- TGI [1]: > 100 µM
- TGI [2]: > 100 µM
- TGI [3]: > 100 µM
- TGI [4]: 54.9 µM
- TGI [5]: > 100 µM
- TGI [6]: > 100 µM
- TGI [7]: 63.4 µM
- TGI [8]: > 100 µM

Structure (SMILES): O=c1c2cc(-c3ccccc3)cnc2sn1-c1ccc(Br)cc1
- TGI [1]: > 100 µM
- TGI [2]: > 100 µM
- TGI [3]: > 100 µM
- TGI [4]: > 100 µM
- TGI [5]: > 100 µM
- TGI [6]: > 100 µM
- TGI [7]: > 100 µM
- TGI [8]: > 100 µM

Structure (SMILES): Cc1ccc(O)c(C(c2cccc(C(c3cc(C)ccc3O)c3cc(C)ccc3O)c2)c2cc(C)ccc2O)c1
- TGI [1]: 3.02 µM
- TGI [2]: 3.04 µM
- TGI [3]: 3.18 µM
- TGI [4]: 3.26 µM
- TGI [5]: 3.34 µM
- TGI [6]: 4 µM
- TGI [7]: 3.34 µM
- TGI [8]: 4.61 µM

Structure (SMILES): CN1C(=O)C2(C)SC1(c1ccccc1)C1C(=O)N(c3ccccc3)C(=O)C12 (stereo not given)
- TGI [1]: > 100 µM
- TGI [2]: > 100 µM
- TGI [3]: > 100 µM
- TGI [4]: > 100 µM
- TGI [5]: > 100 µM
- TGI [6]: > 100 µM
- TGI [7]: > 100 µM
- TGI [8]: > 100 µM

Structure (SMILES): O=C1/C(=C/c2cccc(Cl)c2)CCCc2ccccc21
- TGI [1]: 31.8 µM
- TGI [2]: 94.5 µM
- TGI [3]: 27.4 µM
- TGI [4]: 31.6 µM
- TGI [5]: 30.1 µM
- TGI [6]: > 100 µM
- TGI [7]: 31.5 µM
- TGI [8]: 31.2 µM

Structure (SMILES): N#Cc1ccc(C(O)C(F)(F)c2nc3ccccc3o2)cc1 (stereo not given)
- TGI [1]: > 100 µM
- TGI [2]: > 100 µM
- TGI [3]: > 100 µM
- TGI [4]: > 100 µM
- TGI [5]: > 100 µM
- TGI [7]: > 100 µM
- TGI [8]: > 100 µM

Structure (SMILES): CC1=NN(c2nc(N)nc(CN3CCOCC3)n2)C(C)(C)C1
- TGI [1]: 37.2 µM
- TGI [2]: 40.1 µM
- TGI [3]: > 100 µM
- TGI [4]: > 100 µM
- TGI [5]: 33.3 µM
- TGI [6]: > 100 µM
- TGI [7]: > 100 µM
- TGI [8]: > 100 µM

Structure (SMILES): CCOC(=O)Cc1csc(NC(NC(=O)OCC)(C(=O)OCC)C(F)(F)F)n1 (stereo not given)
- TGI [1]: > 100 µM
- TGI [2]: > 100 µM
- TGI [3]: > 100 µM
- TGI [4]: > 100 µM
- TGI [5]: > 100 µM
- TGI [6]: > 100 µM
- TGI [7]: > 100 µM
- TGI [8]: > 100 µM

Structure (SMILES): CCOc1cc(C2CC(c3ccc(NS(=O)(=O)c4cc([N+](=O)[O-])ccc4C)cc3)=NN2S(=O)(=O)c2cc([N+](=O)[O-])ccc2C)ccc1O (stereo not given)
- TGI [1]: > 100 µM
- TGI [2]: > 100 µM
- TGI [3]: > 100 µM
- TGI [4]: > 100 µM
- TGI [5]: > 100 µM
- TGI [6]: > 100 µM
- TGI [7]: > 100 µM
- TGI [8]: 62 µM

Structure (SMILES): O=c1ccc2ccc(OP(=O)(O)O)cc2o1
- TGI [1]: > 100 µM
- TGI [2]: > 100 µM
- TGI [3]: > 100 µM
- TGI [4]: > 100 µM
- TGI [5]: > 100 µM
- TGI [6]: > 100 µM
- TGI [7]: > 100 µM
- TGI [8]: > 100 µM
